In patent publication US8828985B2, “Carbamate and urea inhibitors of 11-beta-hydroxysteroid dehydrogenase 1” (Vitae Pharmaceuticals, Inc., priority 2008, dated 2014):
Like-named read-outs stand apart in the source and are kept apart here.

What was measured:
[1] = target: T1, human 11β-HSD1 (Homo sapiens, UniProt P28845); test: biochemical; details: Biological Test Example 2 IC50 Range, microsomes from CHO cells overexpressing human 11β-HSD1, SPA
Method: (§1) All reactions are carried out at room temperature in 96 well clear flexible PET Microbeta plates (PerkinElmer). […] The reaction is stopped by adding 50 μl of the SPA beads suspension containing 10 μM 18β-glycyrrhetinic acid, 5 mg/ml protein A coated YSi SPA beads (GE Healthcare) and 3.3 μg/ml of anti-cortisol antibody (East Coast Biologics) in Superblock buffer (Bio-Rad). The plates are then shaken for 120 minutes at room temperature, and the SPA signal corresponding to [^3H]cortisol is measured on a Microbeta plate reader.

[2] = target: T1, human 11β-HSD1; details: for IC50: read-out: Biological Test Example 2 IC50 Range, microsomes from CHO cells overexpressing human 11β-HSD1, SPA
Method: as §1

T1 sequence (P28845 whole entry): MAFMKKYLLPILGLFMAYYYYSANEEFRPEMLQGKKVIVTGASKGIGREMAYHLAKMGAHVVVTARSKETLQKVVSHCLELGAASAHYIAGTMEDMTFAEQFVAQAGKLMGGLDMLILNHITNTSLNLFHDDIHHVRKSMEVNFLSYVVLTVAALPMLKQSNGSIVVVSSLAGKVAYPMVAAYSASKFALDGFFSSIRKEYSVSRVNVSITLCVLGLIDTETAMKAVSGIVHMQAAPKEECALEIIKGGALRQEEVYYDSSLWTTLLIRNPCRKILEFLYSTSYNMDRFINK

Compound | IC50 [1] | Biological Test Example 2 Average % inhibition at 100 nm [2] | IC50 [2] | Biological Test Example 2 Average % inhibition at 111 nm [2]
CC(C)(C)OC(=O)NCC1CN(C(=O)OC2C3CC4CC2CC(C(N)=O)(C4)C3)C1 (single isomer, unassigned) [Example 17 Isomer 1, (cis-1-carbamoyl-4-adamantyl) 3-((tert-butoxycarbonylamino)methyl)azetidine-1-carboxylate] | > 100 nM | 22.1% | – | –
CC(C)(C)OC(=O)NCC1CN(C(=O)OC2C3CC4CC2CC(C(N)=O)(C4)C3)C1 (single isomer, unassigned) [Example 17 Isomer 2, (trans-1-carbamoyl-4-adamantyl) 3-((tert-butoxycarbonylamino)methyl)azetidine-1-carboxylate] | < 100 nM | 92.8% | – | –
CC(C)COC(=O)NC1CCN(C(=O)OC2C3CC4CC2CC(C(N)=O)(C4)C3)C1 (single isomer, unassigned) [Example 18 Isomer 1, (cis-1-carbamoyl-4-adamantyl) (3R-(isobutoxycarbonylamino)pyrrolidine-1-carboxylate)] | > 100 nM | 22.6% | – | –
CC(C)COC(=O)NC1CCN(C(=O)OC2C3CC4CC2CC(C(N)=O)(C4)C3)C1 (single isomer, unassigned) [Example 18 Isomer 2, (trans-1-carbamoyl-4-adamantyl) (3R-(isobutoxycarbonylamino)pyrrolidine-1-carboxylate)] | < 100 nM | 95.0% | – | –
CC1(NC(=O)OC(C)(C)C)CCN(C(=O)OC2C3CC4CC2CC(C(N)=O)(C4)C3)C1 (single isomer, unassigned) [Example 22 Isomer 1, (cis-1-carbamoyl-4-adamantyl) 3-(tert-butoxycarbonylamino)-3-methylpyrrolidine-1-carboxylate] | > 100 nM | 15.7% | – | –
CC1(NC(=O)OC(C)(C)C)CCN(C(=O)OC2C3CC4CC2CC(C(N)=O)(C4)C3)C1 (single isomer, unassigned) [Example 22 Isomer 2, (trans-1-carbamoyl-4-adamantyl) 3-(tert-butoxycarbonylamino)-3-methylpyrrolidine-1-carboxylate] | < 100 nM | 95.5% | – | –
CC1(NC(=O)OC(C)(C)C)CCN(C(=O)OC2C3CC4CC2CC(C(N)=O)(C4)C3)C1 (single isomer, unassigned) [Example 22 Isomer 2.1, (trans-1-carbamoyl-4-adamantyl) 3-(tert-butoxycarbonylamino)-3-methylpyrrolidine-1-carboxylate] | < 100 nM | 88.5% | – | –
CC1(NC(=O)OC(C)(C)C)CCN(C(=O)OC2C3CC4CC2CC(C(N)=O)(C4)C3)C1 (single isomer, unassigned) [Example 22 Isomer 2.2, (trans-1-carbamoyl-4-adamantyl) 3-(tert-butoxycarbonylamino)-3-methylpyrrolidine-1-carboxylate] | < 100 nM | 82.7% | – | –
NC(=O)C12CC3CC(C1)C(OC(=O)N1CC[C@@H](Nc4ncccn4)C1)C(C3)C2 (single isomer, unassigned) [Example 62 Isomer 2] | – | 78.7% | < 100 nM | –
N#Cc1ccc(N[C@@H]2CCN(C(=O)NC3CC4CCC(C3)N4C(N)=O)C2)nc1 (single isomer, unassigned) [Example 104 Isomer 1] | – | – | > 1000 nM | −6.2%
N#Cc1ccc(N[C@@H]2CCN(C(=O)NC3CC4CCC(C3)N4C(N)=O)C2)nc1 (single isomer, unassigned) [Example 104 Isomer 2] | – | – | > 1000 nM | −6.1%
N#Cc1ccc(N[C@@H]2CCN(C(=O)OC3C4CC5CC3CC(C(=O)NC3CC3)(C5)C4)C2)nc1 (single isomer, unassigned) [Example 118 Isomer 2] | – | 7.15% | > 100 nM | –
